Reference: US5100905A, “Method for inhibiting growth of bacteria, fungi or algae by treatment with biocide composition” (Rohm and Haas Company, priority 1991, dated 1992)
“And” between values parts separate entries of the source, which are not always exact repeats. Identical values can stand only once. Like-named read-outs stand apart in the source and are kept apart here.

Assays:
[1] = tested on: skin of guinea pigs; test: Sensitization study, closed-patch test of Buehler; assay type: in vivo, guinea pig
Procedure: The study was conducted to determine the sensitization potential of the synergistic combination of 3.5% 651 and 96.5% 573. The results were compared to the sensitization potential of 886 (containing 75% 651 and 25% 573) and pure 573.
The closed-patch test of Buehler Current Concepts in Cutaneous Toxicology, (New York: Academic Press 1970), pp. 25-40, is used to investigate the sensitization potential of the materials in the guinea pig. The combination (1.5% total active ingredient) at aqueous concentrations of 1000, 5000, 10000 and 15000 ppm a.i., the 886 (13.9% total active ingredient) at aqueous concentrations of 250, 500 and 750 ppm a.i. and the 573 (solid containing 99.5% total active ingredient) at aqueous concentrations of 5000, 15000 and 30000 ppm a.i. were applied topically to the skin of guinea pigs by means of occluded patches (0.4 ml per patch). All guinea pigs (10 per group at each concentration) received a total of ten 6-hr induction exposures over a 22 day period. In addition, a group of guinea pigs were treated with dry patches only and served as the naive control group. Two weeks after the last induction treatment guinea pigs induced with the combination were challenged with 3 concentrations of the combination in distilled water (1000, 5000 and 15000 ppm a.i.), those induced with 886 were challenged with 3 concentrations of 886 in distilled water (100, 250 and 750 ppm a.i.) and those induced with 573 alone were challenged with 3 concentrations of 573 in distilled water (1000, 5000 and 15000 ppm a.i.). Twenty-four (24) and 48 hr after the challenge doses, the application sites were examined for erythema reactions and graded from 0 to 3 in accordance with a pre-established scoring system. Reactions graded 1 or greater were judged to be skin sensitization reactions.
^a Guinea pigs received ten (6 hr.) induction exposures of the ten
materials (0.4 ml per exposure) over a 22 day period.
^b All guinea pigs received 0.4 ml of challenge doses as specified tw
weeks after the last induction dose.
^c Guinea pigs received sham treatment only.

[2] = Growth inhibition / minimum inhibitory concentration (MIC) by 2-fold serial dilutions in Trypticase Soy Broth, 3 inoculations; assay type: cell-based; settings: read-out: End-point activity (MIC) QA (573 alone)
Procedure: (§1) Each single culture was inoculated to TSB agar slants and incubated for 2 days at 30° C. for C. albicans and all bacteria except E. coli and S. aureus, which were at 37° C., and incubated for 10-14 days at 25° C. for fungal cultures. The bacteria and fungi were then washed off the slants with phosphate buffer (0.125 M, pH 7.2) and inoculated into each test tube containing a given concentration and ratio of 573 and 886 to make final cell concentration of about 2×10^7 bacteria and 2×10^6 fungi per ml. […] Seven days after inoculation, 5 microliter of sample from each test tube (containing about 10^5 bacteria and 10^4 fungi from original inoculation) was removed and assessed for viable organisms by 1:50 dilution into TSB medium and checked for regrowth. No viable organisms were detected from the test tubes where MICs were observed. […] Each test tube was reinoculated 2 more times (a total of 3 inoculations) to determine the capacity and the longlasting activity of the combinations.
(§2) As shown, a wide range of concentration and ratios was tested. More importantly all the critical end-point activities for the combinations were covered. […] Thus, the end-point activities are based on the minimum concentrations of a given ratio of combination product that inhibit all three inoculations.

[3] = tested on: mixture of 12 microorganisms; test: Calculation of synergism of 573 and 651 combinations (Kull et al. method); assay type: cell-based; settings: for SI (synergy index, Qa'/QA + Qb'/.75 QB): <1 synergism, 1 additivity, >1 antagonism
Procedure: as §1
Synergism is determined by the industrially accepted method described by Kull, F. C.; Eisman, P. C.; Sylvestrowicz, H. D. and Mayer, R. L. in Applied Microbiology 9:538-541 (1961) using the ratio determined by [formula] wherein QA=concentration of compound A in parts per million (ppm), acting alone, which produced an end point
Qa=concentration of compound A in ppm, in the mixture, which produced an end point
QB=concentration of compound B in ppm, acting alone, which produced an end point
Qb=concentration of compound B in ppm, in the mixture, which produced an end point
When the sum of Qa/QA plus Qb/QB is greater than one, antagonism is indicated. When the sum is equal to one, additivity is indicated, and when the sum is less than one, synergism is indicated.
as §2
The end-point activity (MIC in ppm) is taken from Table 1.
QA is the end-point activity of 573 alone
QB is the end-point activity of 886 alone
Qa is the end-point activity 573 in the mixture of 573 and 886
Qb is the end-point activity of 886 in the mixture of 573 and 886.
Since 886 is 25% 573 and 75% 651, the total 573 (Qa') in the combinations is Qa+25% Qb, and the total 651 (Qb') in the combinations is 75% Qb. Total concentration of 573 and 651 in the mixture is Qa' and Qb'. The % 573 in the mixture is Qa'/(Qa'+Qb'), and %651 in the mixture is Qb'/(Qa'+Qb'.)
Therefore, the calculation of synergy index (SI) is Qa'/QA+Qb'/.75 QB. The most preferred synergy for 573 and 651 combinations is seen at 2.3%-4.5% of 651. Taking the synergy index of less than 0.5 as most significant, then a range of 2.3% to 8.5% of 651 in the 573/651 combinations is preferred.

Cn1sccc1=O [compound 573, 2-methyl-4-isothiazolin-3-one]
Overall incidence of responses ([1]; 5000 and 15000 ppm induction, 1000, 5000 and 15000 ppm challenge): 7 out of a possible 60 responses
Erythema ([1]; induction 5000 and 15000 ppm a.i., challenge 1000 ppm a.i.): no erythema was observed
Erythema responses of 1 or greater at 24 and/or 48 hours ([1]; induction 5000 ppm, challenge 1000 ppm (573)): 0/10
Erythema responses of 1 or greater at 24 and/or 48 hours ([1]; induction 5000 ppm, challenge 5000 ppm (573)): 1/10
Erythema responses of 1 or greater at 24 and/or 48 hours ([1]; induction 5000 ppm, challenge 15000 ppm (573)): 2/10
Erythema responses of 1 or greater at 24 and/or 48 hours ([1]; induction 15000 ppm, challenge 1000 ppm (573)): 0/10
Erythema responses of 1 or greater at 24 and/or 48 hours ([1]; induction 15000 ppm, challenge 5000 ppm (573)): 1/10
Erythema responses of 1 or greater at 24 and/or 48 hours ([1]; induction 15000 ppm, challenge 15000 ppm (573)): 3/10
Erythema responses of 1 or greater at 24 and/or 48 hours ([1]; induction 30000 ppm, challenge 1000 ppm): 1/9
Erythema responses of 1 or greater at 24 and/or 48 hours ([1]; induction 30000 ppm, challenge 5000 ppm): 2/9
Erythema responses of 1 or greater at 24 and/or 48 hours ([1]; induction 30000 ppm, challenge 15000 ppm): 3/9
Erythema responses of 1 or greater at 24 and/or 48 hours ([1]; naive control (sham induction), challenge 15000 ppm 573): No erythema was observed and 0/10
MIC ([2]; Expt. 1, all three inoculations): 500 µg/mL
MIC ([2]; Expt. 2, all three inoculations): 125 µg/mL
Qa'/QA ([3]; Expt. 1): 1.00
Qb'/QB* (QB* = QB × 75%) ([3]; Expt. 1): 0.00
Total 573 Qa' (Qa + 25% Qb) at end-point ([3]; Expt. 1): 500.0 ppm
Total ppm Qa' + Qb' at end-point ([3]; Expt. 1): 500.0 ppm
SI (synergy index, Qa'/QA + Qb'/.75 QB) ([3]; Expt. 1): 1.00
Qa'/QA ([3]; Expt. 2): 1.00
Qb'/QB* (QB* = QB × 75%) ([3]; Expt. 2): 0.00
Total 573 Qa' (Qa + 25% Qb) at end-point ([3]; Expt. 2): 125.0 ppm
Total ppm Qa' + Qb' at end-point ([3]; Expt. 2): 125.0 ppm
SI (synergy index, Qa'/QA + Qb'/.75 QB) ([3]; Expt. 2): 1.00
